Drawing on BindingDB's records for PubMed 35124530 (Tsinghua University, 2022), this text covers IC50 for one compound.

The assay in a line: Antagonist activity at CXCR4 receptor in human SUP-T1 cells assessed as reduction in SDF-1alpha-stimulated cell migration and measured by CellTiter-96 assay.

`N=C(N)NCCC[C@H](NCc1ccccn1)C(=O)NCc1ccc(CNCCCNC2CCCCC2)cc1`: the IC50 – broadly, the concentration needed to halve the response being measured – came out at 236 nM.
